Measurements from US11634419B2, “Dimethyl amino azetidine amides as JAK inhibitors” (THERAVANCE BIOPHARMA R&D IP, LLC, priority 2018, dated 2023).

Tests used:
Lung S9 metabolism = type: in vitro ADME, human; settings: for Compound Remaining at 60 min (%): human lung S9, 1 μM compound, 1 mg/mL S9 protein, NADPH and PAPS; for Sulfate Appearance: qualitative, O-sulfate metabolite peak in human lung S9
Experimental: The time 0, 15, 30, and 60 minute samples were analyzed for parent compound by high resolution LC-MS/MS. Lung S9 fractions from human (lot 1410245) were purchased from XenoTech LLC (Lenexa, Kans.). NADPH (Sigma Aldrich, N1630) and 3-phosphoadenosine 5-phosphosulfate (PAPS) (Sigma Aldrich, A1651) were purchased from Sigma Aldrich (St. Louis, Mo.). Acetonitrile and water were obtained from VWR (Radnor, Pa.) and were of HPLC grade or better. Raloxifene and formic acid was purchased from Sigma Aldrich (St. Louis, Mo.). Lung S9 incubations were performed in a water bath at 37° C. in a 96-well polypropylene plate. […] Louis, Mo.), 3 mM magnesium chloride (Sigma Aldrich, M1028) and in the presence of 100 μM PAPS (Sigma-Aldrich, St. […] Incubation volumes consisted of 400 μL and time points were taken at 0, 15, 30, and 60 minutes by the removal of a 70 μL aliquot and dilution into 140 μL acetonitrile (0% formic acid). All samples were centrifuged at 2250 g for 10 minutes at 5° C. Supernatant (50 μL) was taken from the centrifuged samples and diluted into 100 μL HPLC water containing internal standard. The samples were run on a Dionex Ultimate 3000 Auto sampler and analyzed using a Thermo Q-Exactive High Resolution Mass Spectrometer (Thermo, Waltham, Mass.) in Full Scan mode in conjunction with an Atlantis T3 column 3 μM−2.1×50 mm (Waters Inc., 186003717). Mobile Phase A consisted of Water+0.2% formic acid and Mobile Phase B consisted of acetonitrile+0.2% formic acid. Peak integration was accomplished using Gubbs GMSU software (Gubbs Inc., Alpharetta, Ga.). For each sample, peak area ratios were calculated by dividing the analyte peak area by the internal standard peak area. For each incubation, the peak area ratios of the analytes in each t0 was set to 100%, and the peak areas ratios from the 60 minute samples were converted to percentages remaining relative to the corresponding t0. Determination of sulfate metabolite formation was made qualitatively by observation of early-eluting peak in the parent ion channel which, based on historical internal data, corresponded to the O-sulfate metabolite of each parent compound.

[1] = system: IFNγ secretion in mixed lymphocyte reaction; assay: Inhibition of IFNγ secretion in a mixed lymphocyte reaction assay; type: cell-based, human; settings: summary statement
Experimental: The mixed lymphocyte reaction assay is an in-vitro assay that mimics transplant rejection. T cells from one donor are cultured with allogeneic dendritic cells from another donor. This reaction induces a cellular immune response such as IFNγ secretion. CD14+ monocytes were isolated from human whole blood (Stanford blood center) of donor A using a ficoll gradient and magnetic seperation (CD14 microbeads, Miltenyi). […] Cells were harvested, washed with media, re-suspended to 400,000 cells/ml in media and plated at 10,000 cells/well/25 μl. CD4+ T cells were freshly isolated from human whole blood (Stanford blood center) of donor B using a ficoll gradient and magnetic separation (CD4+ T cell isolation kit, Miltenyi). T cells were re-suspended to 4,000,000 cells/ml in RPMI (Life Technologies) supplemented with 10% Fetal Bovine Serum (FBS, Life Technologies), 2 mM Glutamax (Life Technologies), 25 mM HEPES (Life Technologies) and 1× Pen/Strep (Life Technologies). CD4+ T cells were mixed with the dendritic cells at 100,000 cells/well/25p. […] On day 5, supernatants were collected and measured for interferon gamma (INFγ) using enzyme linked immunosorbent assay (ELISA). Percent inhibition was determined by compound inhibitory potency against IFNγ secretion compared to vehicle treated cells. […]

[2] = Pharmacokinetics in plasma and lung in mouse; type: in vivo; settings: single oral aspiration, 0.2 mg/mL, 50 μL
Experimental: Plasma and lung concentrations of test compounds and ratios thereof were determined in the following manner. BALB/c mice from Charles River Laboratories were used in the assay. Test compounds were individually formulated in 20% propylene glycol in pH 4 citrate buffer at a concentration of 0.2 mg/mL and 50 μL of the dosing solution was introduced into the trachea of a mouse by oral aspiration. At various time points (typically 0.167, 2, 6, 24 hr) post dosing, blood samples were removed via cardiac puncture and intact lungs were excised from the mice.

human JAK1 = human JAK1 (Homo sapiens (Human), UniProt P23458); assay: Co-crystal structure with JAK1; settings: resolution 2.28 Å
Source text: A co-crystal structure was obtained of compound C-1 bound to human JAK1 at a resolution of 2.28 Å. […] Seven specific hydrogen bonding interactions were identified based upon a distance of 3.5 Å or less between donor and acceptor atoms. Of particular note, a hydrogen bonding interaction was identified between the carbonyl of the exocyclic amide of the compound of C-1 and the sidechain of Arg879 of JAK1. A similar interaction can be expected for the compounds of the invention.

human JAK1, sequence (P23458 whole entry): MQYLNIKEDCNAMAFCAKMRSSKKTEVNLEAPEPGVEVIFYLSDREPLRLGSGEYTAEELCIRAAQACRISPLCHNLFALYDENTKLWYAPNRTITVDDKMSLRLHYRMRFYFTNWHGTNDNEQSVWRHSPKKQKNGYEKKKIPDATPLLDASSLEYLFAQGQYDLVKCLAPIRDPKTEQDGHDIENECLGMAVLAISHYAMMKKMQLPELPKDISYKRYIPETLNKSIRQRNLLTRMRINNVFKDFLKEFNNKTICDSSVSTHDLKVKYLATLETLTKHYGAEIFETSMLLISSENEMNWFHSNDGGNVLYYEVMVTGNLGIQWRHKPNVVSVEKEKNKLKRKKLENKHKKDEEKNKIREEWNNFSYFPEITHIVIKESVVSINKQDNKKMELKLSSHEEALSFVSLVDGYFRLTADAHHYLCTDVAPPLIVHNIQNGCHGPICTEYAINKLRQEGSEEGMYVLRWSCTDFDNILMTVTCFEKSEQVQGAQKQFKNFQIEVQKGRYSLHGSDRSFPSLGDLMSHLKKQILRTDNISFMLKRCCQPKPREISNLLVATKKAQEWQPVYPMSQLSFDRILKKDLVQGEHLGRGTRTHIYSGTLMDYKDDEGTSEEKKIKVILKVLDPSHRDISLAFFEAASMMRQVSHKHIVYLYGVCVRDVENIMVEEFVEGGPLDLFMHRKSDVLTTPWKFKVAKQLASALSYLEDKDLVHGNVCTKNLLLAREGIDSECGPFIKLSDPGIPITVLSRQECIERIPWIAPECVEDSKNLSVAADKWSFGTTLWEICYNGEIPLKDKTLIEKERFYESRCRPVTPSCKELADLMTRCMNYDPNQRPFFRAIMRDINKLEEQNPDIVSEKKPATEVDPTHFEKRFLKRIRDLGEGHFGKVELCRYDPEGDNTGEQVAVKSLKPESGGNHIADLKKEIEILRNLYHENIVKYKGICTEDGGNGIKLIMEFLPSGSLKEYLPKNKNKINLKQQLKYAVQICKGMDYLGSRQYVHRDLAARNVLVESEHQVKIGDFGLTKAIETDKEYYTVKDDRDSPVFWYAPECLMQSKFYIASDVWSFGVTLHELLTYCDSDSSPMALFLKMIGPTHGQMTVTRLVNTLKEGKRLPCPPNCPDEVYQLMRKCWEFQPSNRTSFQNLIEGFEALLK

## CCc1cc(O)ccc1-c1ccc2c(-c3nc4c([nH]3)CN(C(C)C)[C@H](C(=O)N3CC(N(C)C)C3)C4)n[nH]c2c1 [Compound 1, (S)-(3-(dimethylamino)azetidin-1-yl)(2-(6-(2-ethyl-4-hydroxyphenyl)-1H-indazol-3-yl)-5-isopropyl-4,5,6,7-tetrahydro-3H-imidazo[4,5-c]pyridin-6-yl)methanone]
Lung S9 metabolism
  Compound Remaining at 60 min (%): 81%
  Sulfate Appearance: Yes
[1]
  inhibition of IFNγ secretion in mixed lymphocyte reaction (in words): effectively inhibit IFNγ secretion
[2]
  Plasma AUC(0-24): 0.943 µg·h/mL

## CCc1cc(O)ccc1-c1ccc2c(-c3nc4c([nH]3)CN(CC)[C@H](C(=O)N3CC(N(C)C)C3)C4)n[nH]c2c1 [Compound 2, (S)-(3-(dimethylamino)azetidin-1-yl)(5-ethyl-2-(6-(2-ethyl-4-hydroxyphenyl)-1H-indazol-3-yl)-4,5,6,7-tetrahydro-3H-imidazo[4,5-c]pyridin-6-yl)methanone]
Lung S9 metabolism
  Compound Remaining at 60 min (%): 98%
  Sulfate Appearance: Yes

## CCc1cc(O)ccc1-c1ccc2c(-c3nc4c([nH]3)CN(CC)[C@H](C(=O)N3CC(C)(N(C)C)C3)C4)n[nH]c2c1 [Compound 3, (S)-(3-(dimethylamino)-3-methylazetidin-1-yl)(5-ethyl-2-(6-(2-ethyl-4-hydroxyphenyl)-1H-indazol-3-yl)-4,5,6,7-tetrahydro-3H-imidazo[4,5-c]pyridin-6-yl)methanone]
Lung S9 metabolism
  Compound Remaining at 60 min (%): 97%
  Sulfate Appearance: Yes

## CCc1cc(O)ccc1-c1ccc2c(-c3nc4c([nH]3)CN(C(C)C)[C@H](C(=O)N3CC(C)(N(C)C)C3)C4)n[nH]c2c1 [Compound 4, (S)-(3-(dimethylamino)-3-methylazetidin-1-yl)(2-(6-(2-ethyl-4-hydroxyphenyl)-1H-indazol-3-yl)-5-isopropyl-4,5,6,7-tetrahydro-3H-imidazo[4,5-c]pyridin-6-yl)methanone]
Lung S9 metabolism
  Compound Remaining at 60 min (%): 100%
  Sulfate Appearance: Yes

## CCCN1Cc2[nH]c(-c3n[nH]c4cc(-c5ccc(O)cc5CC)ccc34)nc2C[C@H]1C(=O)N1CC(N(C)C)C1 [Compound 5, (S)-(3-(dimethylamino)azetidin-1-yl)(2-(6-(2-ethyl-4-hydroxyphenyl)-1H-indazol-3-yl)-5-propyl-4,5,6,7-tetrahydro-3H-imidazo[4,5-c]pyridin-6-yl)methanone]
Lung S9 metabolism
  Compound Remaining at 60 min (%): 96%
  Sulfate Appearance: Yes

## CCCN1Cc2[nH]c(-c3n[nH]c4cc(-c5ccc(O)cc5CC)ccc34)nc2C[C@H]1C(=O)N1CC(C)(N(C)C)C1 [Compound 6, (S)-(3-(dimethylamino)-3-methylazetidin-1-yl)(2-(6-(2-ethyl-4-hydroxyphenyl)-1H-indazol-3-yl)-5-propyl-4,5,6,7-tetrahydro-3H-imidazo[4,5-c]pyridin-6-yl)methanone]
Lung S9 metabolism
  Compound Remaining at 60 min (%): 90%
  Sulfate Appearance: Yes

## CCc1cc(O)c(F)cc1-c1ccc2c(-c3nc4c([nH]3)CN(C(C)C)[C@H](C(=O)N3CC(N(C)C)C3)C4)n[nH]c2c1 [Compound C-1, (S)-(3-(dimethylamino)azetidin-1-yl)(2-(6-(2-ethyl-5-fluoro-4-hydroxyphenyl)-1H-indazol-3-yl)-5-isopropyl-4,5,6,7-tetrahydro-3H-imidazo[4,5-c]pyridin-6-yl)methanone, reference compound]
Human JAK1
  binding site observed in co-crystal structure: bind in the ATP binding site
Lung S9 metabolism
  Compound Remaining at 60 min (%): 6%
  Sulfate Appearance: Yes

## CCc1cc(O)c(F)cc1-c1ccc2c(-c3nc4c([nH]3)CN(CC)[C@H](C(=O)N3CC(N(C)C)C3)C4)n[nH]c2c1 [Compound C-2, (S)-(3-(dimethylamino)azetidin-1-yl)(5-ethyl-2-(6-(2-ethyl-5-fluoro-4-hydroxyphenyl)-1H-indazol-3-yl)-4,5,6,7-tetrahydro-3H-imidazo[4,5-c]pyridin-6-yl)methanone, reference compound]
Lung S9 metabolism
  Compound Remaining at 60 min (%): 6%
  Sulfate Appearance: Yes

## CCc1cc(O)c(F)cc1-c1ccc2c(-c3nc4c([nH]3)CN(CC)[C@H](C(=O)N3CC(C)(N(C)C)C3)C4)n[nH]c2c1 [Compound C-3, (S)-(3-(dimethylamino)-3-methylazetidin-1-yl)(5-ethyl-2-(6-(2-ethyl-5-fluoro-4-hydroxyphenyl)-1H-indazol-3-yl)-4,5,6,7-tetrahydro-3H-imidazo[4,5-c]pyridin-6-yl)methanone, reference compound]
Lung S9 metabolism
  Compound Remaining at 60 min (%): 5%
  Sulfate Appearance: Yes

## CCc1cc(O)c(F)cc1-c1ccc2c(-c3nc4c([nH]3)CN(C(C)C)[C@H](C(=O)N3CC(C)(N(C)C)C3)C4)n[nH]c2c1 [Compound C-4, (S)-(3-(dimethylamino)-3-methylazetidin-1-yl)(2-(6-(2-ethyl-5-fluoro-4-hydroxyphenyl)-1H-indazol-3-yl)-5-isopropyl-4,5,6,7-tetrahydro-3H-imidazo[4,5-c]pyridin-6-yl)methanone, reference compound]
Lung S9 metabolism
  Compound Remaining at 60 min (%): 4%
  Sulfate Appearance: Yes

## CCCN1Cc2[nH]c(-c3n[nH]c4cc(-c5cc(F)c(O)cc5CC)ccc34)nc2C[C@H]1C(=O)N1CC(N(C)C)C1 [Compound C-5, (S)-(3-(dimethylamino)azetidin-1-yl)(2-(6-(2-ethyl-5-fluoro-4-hydroxyphenyl)-1H-indazol-3-yl)-5-propyl-4,5,6,7-tetrahydro-3H-imidazo[4,5-c]pyridin-6-yl)methanone, reference compound]
Lung S9 metabolism
  Compound Remaining at 60 min (%): 5%
  Sulfate Appearance: Yes

## CCCN1Cc2[nH]c(-c3n[nH]c4cc(-c5cc(F)c(O)cc5CC)ccc34)nc2C[C@H]1C(=O)N1CC(C)(N(C)C)C1 [Compound C-6, (S)-(3-(dimethylamino)-3-methylazetidin-1-yl)(2-(6-(2-ethyl-5-fluoro-4-hydroxyphenyl)-1H-indazol-3-yl)-5-propyl-4,5,6,7-tetrahydro-3H-imidazo[4,5-c]pyridin-6-yl)methanone, reference compound]
Lung S9 metabolism
  Compound Remaining at 60 min (%): 4%
  Sulfate Appearance: Yes
